Read-outs that look alike come from different tables or passages of the source.

The record followed here is patent US9381166B2 (Rigshospitalet, priority 2007, dated 2016).

For data set [1], the system named is hemostatic system. Kind of data set: TEG MA with combination of adrenergic receptor agonist and antagonists. Type of data set: in vivo, human.
Method: FIG. 10: Seven healthy volunteers received 3 doses of adrenaline infusion lasting for 5 minutes each in the following step-wise increasing doses 3.5, 5.0 and 6.0 μg/kg/h. After resting 1 hour, the subjects received 0.15 μg/kg Seloken i.v. and rested again 30 minutes before repeating the step-wise adrenaline infusions. Blood samples were obtained from an arterial catheter at baseline (t=0.0), after each of the first adrenaline doses (t=5.0, t=10.1, t=15.0), at baseline after Seloken administration and rest (t=0.1) and after each of the subsequent adrenaline infusions (t=5.1, t=10.1, t=15.1). The blood was analyzed with TEG as described in FIG. 3 and Example 1. TEG MA values are presented as mean with 95% Cl and analyzed with a 2-way repeated measurements (RM) ANOVA with post hoc Bonferroni adjusted paired t-test of t=0.0 vs. t=5.0, t=10.1, t=15.0, respectively and t=0.1 vs. t=5.1, t=10.1, t=15.1, ***p<0.001.
Healthy volunteers rested 1 hour before receiving step-wise i.v. administration of adrenaline in the doses 3.5, 5.0 and 6.0 μg/kg/h, five minutes infusion at each dose, as described in FIG. 4. Hereafter the subjects rested for 1 hour and received an antagonist by i.v. infusion propanolol (primarily a β-2 antagonist, 0.15 mg/kg for 10 minutes), n=8, Urapidil (α-1 antagonist, 50 mg) or Seloken (β-1 antagonist 0.15 mg/kg for 10 minutes), n=7. […]
Data set [2] is described as follows: Hemodynamic monitoring during adrenaline infusion without or with Seloken. Type of data set: in vivo, human. From the text: FIG. 11: The healthy subjects described in FIG. 10 were monitored haemodynamically at the same time points as described in FIG. 10. (a) heart rate (HR), (b) cardiac output (CO), (c) stroke volume (SV), (d) invasive blood pressure: mean arterial pressure, MAP) and (d) total peripheral resistance (TPR). […] The conc x treatment is an analysis of the total response/the total pattern, to check whether there is an interaction between concentration and treatment. […] ANOVA: Analysis of variance.
The hemodynamic changes comprising heart rate (HR), cardiac output (CO), stroke volume (SV), mean arterial pressure (MAP) and total peripheral resistance (TPR) were monitored during the protocol described in example 7 and FIG. 10.

The test system of data set [3] is hemostatic system. As to the method:
FIG. 7: TEG parameters (a) R, (b) Angle and (c) MA measured as described in FIG. 3 and example 1 on blood samples collected from patients infused with adrenaline prior to prostatectomy. Ten patients were anesthetized by propofol and haldid and infused with adrenaline i.v. in the doses 1, 2 and 3 μg/kg/h each for 5 minutes prior to skin incision. Hereafter the patients were prostatectomised according to local protocol. Blood samples were collected from an arterial catheter before adrenaline administration and immediately after each infusion dose (1, 2 and 3 μg/kg/h) and again 1 hour after discontinuation of adrenaline infusion. Statistics used: One-way ANOVA, Friedman Test, and Dunn's Multiple Comparison post hoc test of “before” compared to each of the following points 1, 2, 3 μg/kg/h and 1 hour after termination of adrenaline infusion, *p<0.05, **p<0.01,***p<0.001, ns: non significant.
Patients undergoing prostatectomy were anaesthetized by propofol and haldid. Prior to skin incision the patients received a step-wise i.v. infusion of adrenaline in the doses 1, 2 and 3 μg/kg/h each for 5 minutes. TEG analyses were performed as described in example 1, exactly 30 minutes after collection of arterial blood. Blood samples were obtained before and after each dose and 1 hour after discontinuation of adrenaline infusion.

The conditions of data set [4]: i.v. step-wise 1, 2, 3 μg/kg/h or 3 μg/kg/h for 15 minutes before skin incision, vs 40 control patients.
Method: The 2 intervention groups were compared to 40 controls also undergoing prostatectomy, whereof 20 underwent surgery prior to the interventions and the last 20 after the intervention. All values including median for each group is depicted. Comparisons between control group and each of the intervention groups was done separately by Mann Whitney test.
Blood loss of the 10 patients described in example 2 and 10 additional prostatectomy patients receiving a 15 minutes continuous adrenaline infusion of 3 μg/kg/h before skin incision were compared to 40 control patients, not receiving adrenaline, whereof 20 were operated before the interventions and the last 20 subsequently after the intervention (FIG. 8).
Data set [5] deals with hemostatic system. Kind of data set: Thrombelastography (TEG) of arterial whole blood after i.v. infusion in healthy volunteers. The class given is in vivo, human. As for the experimental part: FIG. 3: Representative TEG profile of healthy volunteers before and after administration of adrenaline. Whole blood was drawn in 1/10 citrate from an arterial catheter. The citrated whole blood sample rested exactly 30 minutes at room temperature before TEG analysis on the Thrombelastograph Hemostasis Analyser, series 5000 (Haemoscope Corp., Skokie, Ill.): One ml of citrated whole blood was transferred to a kaolin vial (Haemoscope Corp.) and gently mixed by inversion 5 times. From the kaolin vial 340 μl was added to a plain TEG cup preloaded with 20 μl of 0.2 M CaCl2 and the analysis started immediately.
FIG. 4: TEG parameters (a) R, (b) Angle and (c) MA of 30 healthy volunteers after totally 15 minutes of i.v. administration of adrenaline. The subjects were catheterized and rested 60 minutes before administration of adrenaline was commenced. Adrenaline was step-wise infused intravenously for 5 minutes at each of the doses 3.5 μg/kg/h, 5.0 μg/kg/h and 6.0 μg/kg/h. Blood samples were collected from an arterial catheter at baseline (t=0) and immediately after each dose (t=5, t=10 and t=15).
FIG. 5: TEG MA measured before and after i.v. infusion of noradrenaline at 4.8 μg/kg/h for 15 minutes in 10 healthy volunteers, mean with 95% Cl. MA before and after noradrenaline was compared by a paired t-test with a p-value<0.05 considered statistically significant.
FIG. 6: TEG MA measured before (t=0) and after i.v. infusion of adrenaline at 4.8 μg/kg/h for 15 minutes (t=15) and 30 minutes after discontinuation of adrenaline administration (t=45). Data presented as mean with 95% Cl.
A whole blood sample for TEG analysis was drawn into a tube containing citrate (9 volumes of blood into 1 volume of 0.129 M citrate; […] system, BD Biosciences, Plymouth, UK) and rested for exactly 30 minutes before analysis: Coagulation was initiated by kaolin and re-calcified according to the instructions of the manufacturer: Citrated whole blood was added to a kaolin vial and mixed by gently inversion 5 times before transfer to the TEG cup containing calcium chloride (20 μl of 0.2 M CaCl2), which was preloaded into the TEG® cup as published previously [Johansson et al. 2008]. The hemostatic process was recorded by use of a TEG® coagulation analyzer (5000 series, Haemoscope Corporation). Adrenaline was mixed with 0.9% NaCl and infused intravenously.
FIG. 3 illustrates TEG profiles from a representative volunteer before and after receiving intravenous infusion of adrenaline 3 μg/kg/h for 15 minutes.

Data set [6] is described as follows: Plasma potassium concentration before and after adrenaline and Seloken. Type of data set: in vivo, human.
From the text: Plasma K+ concentrations where followed before and after administration of both adrenaline and Seloken (beta blocker).
[7] abbreviates: in response to adrenaline infusions.
Where [8] appears, read: prostatectomy patients, step-wise i.v. 1, 2 and 3 μg/kg/h each for 5 minutes.
The mark [9] stands for this setting: healthy volunteers, i.v. adrenaline 3 μg/kg/h for 15 minutes (FIG. 3, FIG. 4).

Method for fibrinolysis: Arterial blood was collected in citrate before and after the last adrenaline dose (t=15) and again 30 minutes after end of infusion (t=45). The blood was analyzed with TEG (described in FIG. 3) after addition of tissue plasminogen activator (tPA) in a final concentration of 2.4 nM. (a) A representative example of TEG tracings with tPA induced fibrinolysis before and immediately after infusions of adrenaline. (b) Comparisons of the lysis AUC values t=0 vs. t=15 and t=0 vs. t=45, respectively by 1-way ANOVA, Friedman test and post hoc Dunn's Multiple Comparison Test, **p<0.01, ns: not significant.
When challenging the clot in vitro by induction of fibrinolyis, the Lysis AUC obtained by TEG (see FIG. 2) is a measure of the clot's resistance against fibrinolysis. Healthy subject received step-wise adrenaline infusion as described in FIG. 4, and blood was collected before (t=0), immediately after the infusion (t=15) and 30 minutes after discontinuation (t=45). Citrated whole blood was analysed precisely 30 minutes after blood collection: The fibrinolysis activator tPA (American Diagnostica) was added in a final concentration of 2.4 nM and TEG was performed as described in Example 1 and FIG. 3.

With `CNC[C@H](O)c1ccc(O)c(O)c1` [adrenaline, (R)-4-(1-hydroxy-2-(methylamino)ethyl)benzene-1,2-diol], in the data set with fibrinolysis (30 minutes after discontinuation of infusion (t=45)), the “effect on Lysis AUC after discontinuation” value is recorded as “abrogated”. Also, in the data set with fibrinolysis (healthy subjects, step-wise 3.5, 5.0, 6.0 μg/kg/h, t=15 vs t=0, tPA 2.4 nM), the “increase of Lysis AUC (resistance against fibrinolysis)” value was found to be 154%. For the same compound, the “TEG MA after adrenaline administration” value in the data set on hemostatic system [1] (healthy volunteers, step-wise 3.5, 5.0 and 6.0 μg/kg/h (FIG. 10)) was “increases”. Further, the “heart rate (HR)” value in data set [2] (adrenaline alone, 3.5, 5.0, 6.0 μg/kg/h) is on record as “increased HR significantly”. Moreover, the “total peripheral resistance (TPR)” value in data set [2] (all adrenaline doses, with and without Seloken) was “significant decrease”. Moreover, the “mean arterial pressure (MAP)” value in data set [2] (any of the adrenaline doses used) is reported as “no effects”. Moreover, in data set [2] (setting [7]), the “cardiac output (CO)” value is “increase in CO” and the “stroke volume (SV)” value is reported as “increase in SV”. Moreover, the “pro-hemostatic effect versus dose” value with hemostatic system [3] (1, 2 and 3 microgram/kg/hour, compared to baseline (FIG. 7)) is reported as “dose dependent increase”. Further, in the data set with hemostatic system [3] (60 min after discontinuation of infusion, prostatectomy patients), the “pro-hemostatic effect on clot strength (MA) after discontinuation” value is given as “abated”. The “time until MA returns to baseline after discontinuation of infusion” value in the data set with hemostatic system [3] (prostatectomy patients (FIG. 7c)) was no more than 60 min. In the data set with hemostatic system [3] (setting [8]), the “TEG Angle (propagation and thrombin generation)” value was “increased”; the “TEG MA (mechanical strength of the clot)” value is “increased”; the “TEG R (initiation of the coagulation process)” value is given as “decreased”. The perioperative blood loss entry in data set [4] is recorded as “reduced perioperative blood loss significantly”. In addition, the “time until MA returns to baseline after discontinuation of infusion” value in the data set on hemostatic system [5] (healthy volunteers, 4.8 μg/kg/h for 15 minutes (FIG. 6)) was no more than 30 min. Also, in the data set on hemostatic system [5] (healthy volunteers, adrenaline infusion 3.5, 5.0, 6.0 μg/kg/h (FIG. 4c)), the MA response entry is “dose-dependent increase”. Further, in the data set on hemostatic system [5] (setting [9]), the “TEG Angle (thrombin generation)” value was “increased”, the “TEG MA (mechanical clot strength)” value is given as “increased” and the “TEG R (initiation of the coagulation process)” value is on record as “shorter”. Further, the “plasma potassium concentrations following administration” value in data set [6] (three healthy volunteers) is given as “fell”.
Regarding `COCCc1ccc(OCC(O)CNC(C)C)cc1` (stereo not shown) [Seloken, Metoprolol], the “effect of antagonist on the MA increase after adrenaline” value in the data set on hemostatic system [1] (antagonist i.v. 30 minutes before repeated step-wise adrenaline 3.5, 5.0, 6.0 μg/kg/h, Seloken 0.15 mg/kg for 10 minutes) was “not affected”. Moreover, in data set [2] (after Seloken administration), the “adrenaline-induced increase in SV” value was “not significantly lowered”. For the same compound, the “adrenaline-induced decrease in TPR” value in data set [2] (after Seloken treatment) is recorded as “significantly lower decrease”. For the same compound, the “adrenaline-induced increase in CO” value in data set [2] (when Seloken was administered, all adrenaline concentrations) is listed as “significantly lower”. The “adrenaline-induced increase in HR” value in data set [2] (when Seloken was infused before adrenaline) is given as “practically abrogated/normalized”. Further, the “drop in plasma potassium concentration after adrenaline” value in data set [6] (Seloken administered prior to adrenaline) is given as “less”.
Turning to `NC[C@H](O)c1ccc(O)c(O)c1` [noradrenaline, 4-(2-Amino-1-hydroxyethyl)benzene-1,2-diol], in the data set on hemostatic system [5] (10 healthy subjects, i.v. 4.8 μg/kg/h for 15 minutes (FIG. 5)), the “pro-hemostatic effect (TEG MA)” value is given as “pro-hemostatic effect”.
